Measured values from patent US11498930B2 (BLUERAY THERAPEUTICS (SHANGHAI) CO., LTD., priority 2018, dated 2022).
Where two headings read alike, the source gives them in different places.

How the values were obtained:
[1] = tested on: phosphorylation level of intracellular protein kinase (ERK) in MOLM13 cells; test: Phosphorylated protein kinase (p-ERK) cell experiment (AlphaLISA); format: cell-based
Procedure: The inhibitory activities of the compounds on the phosphorylation level of intracellular protein kinase (ERK) were determined by AlphaLISA method.
Firstly, the cells were treated with the compounds. The compounds to be tested were subjected to 3-fold dilution with 100% DMSO, and a total of 9 different concentration gradients were set. MOLM13 cells were then seeded into 96-well plates at a density of 30,000 cells per well in a volume of 100 µL per well. […] of DMSO or the test compounds with different concentrations was then transferred into each well, setting two duplicates for each concentration, and the final concentration of DMSO was controlled at 0.5%.
Secondly, the cells were lysed. After 2 hours of cell treatment, the medium was removed, and the cells were washed 3 times with phosphate buffered saline. 50 µL of freshly prepared lysis buffer was added to each well, and the plates were shaken and kept at room temperature for 10 minutes.
Thirdly, the phosphorylated extracellular signal-regulated kinase (p-ERK) was detected by AlphaLISA@ SureFire® Ultra™ p-ERK 1/2 (Thr202/Tyr204) kit (Perkin Elmer, ALSU-PERK-A10K). 10 µL of the above lysate was transferred to a 384-well plate (Perkin Elmer, 6005350), and the phosphorylation level of the extracellular signal-regulated kinase of the sample was detected according to the product instructions. The signal was read using AlphaScreen detector on Spectra max i3 (Molecular Devices). The percentage of inhibition (%) was calculated by the following formula: Inhibition percentage(%)=(1−p-ERK signal of compound-treated cells/p-ERK signal of DMSO-treated cells)*100

[2] = tested on: MOLM-13 cells; test: MOLM-13 cell proliferation experiment; format: cell-based; conditions: Homo sapiens
Procedure: After 3 days, 5 µL of CellTiter-Glo reagent (Promega, ZG7572) was added to each well, and the plates were kept at room temperature in the dark for 10 minutes. The […] was detected by Spectra max i3 (Molecular Devices). The relative growth rate of the treated cells was compared with that of DMSO control.

[3] = biological target: SHP2^E76A protein (Homo sapiens (Human), UniProt Q06124, E76A); test: SHP2 enzyme activity inhibition experiment; format: biochemical
Procedure: Compound powders were dissolved in DMSO to prepare mother liquor.
During the experiment, the stock solutions of the compounds were subjected to 3-fold gradient dilution with DMSO, and 10 different test concentrations of each compound were set. […] The protein used was the activated protein SHP^2E76A with amino acid mutation at position 76 of the protein, and the substrate used was DiFMUP (Invitrogen, E12020). […] 50 µL of enzyme solution was added to the detection wells, followed by 50 µL of substrate. […] GraphPad Prism 5 was used for nonlinear regression analysis, and the curve of enzyme activity versus compound concentration was fitted by the equation Y=Bottom+(Top-Bottom)/(1+10^((Log IC50−X)*HillSlope)) to calculate the IC50 value of each compound.

[4] = p-ERK, MOLM13 cells, 2 hours of cell treatment, Tables 2.1 and 2.2, read-out: IC50
[5] = MOLM-13, 72 h, MOLM-13 cell proliferation, 3 days, Tables 3.1 and 3.2, read-out: IC50
[6] = MOLM-13, read-out: MOLM-13 cell proliferation IC50
[7] = SHP2 enzyme activity, Tables 1.1 and 1.2, read-out: IC50
[8] = Table 4, read-out: SHP2 enzyme activity IC50
[9] = Homo sapiens, MOLM-13, MOLM13 cells, Table 4, read-out: p-ERK IC50
[10] = Homo sapiens, MOLM-13, p-ERK, MOLM13 cells, 2 hours of cell treatment, Tables 2.1 and 2.2, read-out: IC50

Chain of SHP2^E76A protein (Q06124 whole entry E76A): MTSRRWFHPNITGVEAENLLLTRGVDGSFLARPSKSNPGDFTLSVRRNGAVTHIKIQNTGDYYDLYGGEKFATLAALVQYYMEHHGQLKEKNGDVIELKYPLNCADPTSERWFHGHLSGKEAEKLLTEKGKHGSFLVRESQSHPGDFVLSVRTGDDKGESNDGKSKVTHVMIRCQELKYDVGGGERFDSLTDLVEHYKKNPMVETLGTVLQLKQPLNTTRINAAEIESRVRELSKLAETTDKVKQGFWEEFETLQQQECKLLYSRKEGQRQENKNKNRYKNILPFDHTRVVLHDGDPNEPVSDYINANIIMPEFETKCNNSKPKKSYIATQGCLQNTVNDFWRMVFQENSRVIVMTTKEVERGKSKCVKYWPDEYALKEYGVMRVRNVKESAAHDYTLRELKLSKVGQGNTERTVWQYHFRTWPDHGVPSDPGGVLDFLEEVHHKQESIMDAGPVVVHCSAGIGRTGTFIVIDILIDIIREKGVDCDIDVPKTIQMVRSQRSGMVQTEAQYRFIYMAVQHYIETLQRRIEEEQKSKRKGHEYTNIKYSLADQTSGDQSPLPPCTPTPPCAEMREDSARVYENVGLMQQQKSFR

Structure (SMILES) | IC50 [2, 5] [µM] | IC50 [3, 7] [µM] | also measured
CC1C[C@@H](N)C2(CCN(c3ncc(Sc4cccc(Cl)c4Cl)c4nncn34)CC2)C1 (stereo partly shown) |  |  | IC50 [1, 4]: < 0.1 µM
C[C@@H]1OCC2(CCN(c3ncc(Sc4ccnc(N)c4Cl)c4nncn34)CC2)[C@@H]1N | 0.1 to 1 | < 0.1 | IC50 [2, 6]: 0.102 µM; IC50 [3, 8]: 0.013 µM; IC50 [1, 9]: 0.335 µM
C[C@@H]1OCC2(CCN(c3ncc(Sc4cccc(Cl)c4Cl)c4nncn34)CC2)[C@@H]1N [listing 1 of 2 here] |  |  | IC50 [2, 6]: 0.158 µM; IC50 [3, 8]: 0.003 µM; IC50 [1, 9]: 0.195 µM
C[C@@H]1OCC2(CCN(c3ncc(Sc4cccc(Cl)c4Cl)c4nncn34)CC2)[C@@H]1N [listing 2 of 2 here] | 0.1 to 1 | < 0.1 | IC50 [1, 10]: 0.1 to 1 µM
N[C@@H]1CC(O)CC12CCN(c1ncc(Sc3cccc(Cl)c3Cl)c3nccn13)CC2 (stereo partly shown) | < 0.1 | < 0.1 | IC50 [2, 6]: 0.042 µM; IC50 [3, 8]: 0.009 µM; IC50 [1, 9]: 0.028 µM; IC50 [1, 10]: < 0.1 µM
N[C@@H]1CCCC12CCN(c1ncc(Sc3cccnc3Cl)c3nccn13)CC2 | 0.1 to 1 |  | IC50 [1, 10]: 0.1 to 1 µM
N[C@@H]1CCCC12CCN(c1ncc(Sc3cccc(NC(=O)c4c(O)nc5n(c4=O)CCCC5)c3Cl)c3nccn13)CC2 |  |  | IC50 [1, 4]: < 0.1 µM
CC1(CN)CCN(c2ncc(Sc3cccc(Cl)c3Cl)c3nccn23)CC1 [(1-(8-((2,3-dichlorophenyl)thio)imidazo[1,2-c]pyrimidin-5-yl)-4-methylpiperidin-4-yl)methanamine] | 0.1 to 1 | < 0.1 | 
CC1C[C@@H](N)C2(CCN(c3ncc(Sc4ccnc(Cl)c4Cl)c4nncn34)CC2)C1 (stereo partly drawn) [(1R)-8-(8-((2,3-dichloropyridin-4-yl)thio)-[1,2,4]triazolo[4,3-c]pyrimidin-5-yl)-3-methyl-8-azaspiro[4.5]decan-1-amine] | 0.1 to 1 | < 0.1 | 
CC1C[C@@H](N)C2(CCN(c3ncc(Sc4ccnc(N)c4Cl)c4nncn34)CC2)C1 (stereo partly drawn) [(1R)-8-(8-((2-amino-3-chloropyridin-4-yl)thio)-[1,2,4]triazolo[4,3-c]pyrimidin-5-yl)-3-methyl-8-azaspiro[4.5]decan-1-amine] | 0.1 to 1 | < 0.1 | 
CC1C[C@@H](N)C2(CCN(c3ncc(Sc4cc(N)nc(Cl)c4Cl)c4nccn34)CC2)C1 (stereo partly drawn) [(1R)-8-(8-((6-amino-2,3-dichloropyridin-4-yl)thio)imidazo[1,2-c]pyrimidin-5-yl)-3-methyl-8-azaspiro[4.5]decan-1-amine] | < 0.1 | < 0.1 | 
Cc1nccc(Sc2cnc(N3CCC4(CC3)CO[C@@H](C)[C@H]4N)n3ncnc23)c1Cl [(3S,4S)-8-(8-((3-chloro-2-methylpyridin-4-yl)thio)-[1,2,4]triazolo[1,5-c]pyrimidin-5-yl)-3-methyl-2-oxa-8-azaspiro[4.5]decan-4-amine] | 1 to 10 | 0.1 to 1 | 
C[C@@H]1OCC2(CCN(c3ncc(Sc4cc(N)nc(Cl)c4Cl)c4nncn34)CC2)[C@@H]1N [(3S,4S)-8-(8-((6-amino-2,3-dichloropyridin-4-yl)thio)-[1,2,4]triazolo[4,3-c]pyrimidin-5-yl)-3-methyl-2-oxa-8-azaspiro[4.5]decan-4-amine] | 0.1 to 1 | < 0.1 | 
N[C@@H]1CCCN(c2ncc(Sc3cccc(Cl)c3Cl)c3nncn23)CC1 [(R)-1-(8-((2,3-dichlorophenyl)thio)-[1,2,4]triazolo[4,3-c]pyrimidin-5-yl)azepan-4-amine] | 1 to 10 | 0.1 to 1 | 
N[C@@H]1CCCC12CCN(c1ncc(Sc3cccc(Cl)c3Cl)c3nncn13)CC2 [(R)-8-(8-((2,3-dichlorophenyl)thio)-[1,2,4]triazolo[4,3-c]pyrimidin-5-yl)-8-azaspiro[4.5]decan-1-amine] | 0.1 to 1 | < 0.1 | 
N[C@@H]1CCOC12CCN(c1ncc(Sc3cccc(Cl)c3Cl)c3nccn13)CC2 [(R)-8-(8-((2,3-dichlorophenyl)thio)imidazo[1,2-c]pyrimidin-5-yl)-1-oxa-8-azaspiro[4.5]decan-4-amine] |  | 0.1 to 1 | IC50 [1, 10]: 0.1 to 1 µM
N[C@@H]1CCCC12CCN(c1ncc(Sc3ccc(Cl)cc3Cl)c3nncn13)CC2 [(R)-8-(8-((2,4-dichlorophenyl)thio)-[1,2,4]triazolo[4,3-c]pyrimidin-5-yl)-8-azaspiro[4.5]decan-1-amine] | 1 to 10 | 0.1 to 1 | 
CC(C)c1ccccc1Sc1cnc(N2CCC3(CCC[C@H]3N)CC2)n2cnnc12 [(R)-8-(8-((2-isopropylphenyl)thio)-[1,2,4]triazolo[4,3-c]pyrimidin-5-yl)-8-azaspiro[4.5]decan-1-amine] | 1 to 10 | 0.1 to 1 | 
COc1ccccc1Sc1cnc(N2CCC3(CCC[C@H]3N)CC2)n2cnnc12 [(R)-8-(8-((2-methoxyphenyl)thio)-[1,2,4]triazolo[4,3-c]pyrimidin-5-yl)-8-azaspiro[4.5]decan-1-amine] | 0.1 to 1 | 0.1 to 1 | 
Nc1cccc(Sc2cnc(N3CCC4(CCC[C@H]4N)CC3)n3ccnc23)c1Cl [(R)-8-(8-((3-amino-2-chlorophenyl)thio)imidazo[1,2-c]pyrimidin-5-yl)-8-azaspiro[4.5]decan-1-amine] | 0.1 to 1 | 0.1 to 1 | 
N[C@@H]1CCCC12CCN(c1ncc(Sc3ccncc3Cl)c3ncnn13)CC2 [(R)-8-(8-((3-chloropyridin-4-yl)thio)-[1,2,4]triazolo[1,5-c]pyrimidin-5-yl)-8-azaspiro[4.5]decan-1-amine] | 1 to 10 | 1 to 10 | 
N[C@@H]1CCCC12CCN(c1ncc(Sc3cccc4ccccc34)c3nncn13)CC2 [(R)-8-(8-(naphthalen-1-ylthio)-[1,2,4]triazolo[4,3-c]pyrimidin-5-yl)-8-azaspiro[4.5]decan-1-amine] | 0.1 to 1 | < 0.1 | 
N[C@@H]1CCCC12CCN(c1ncc(Sc3ccccc3)c3nccn13)CC2 [(R)-8-(8-(phenylthio)imidazo[1,2-c]pyrimidin-5-yl)-8-azaspiro[4.5]decan-1-amine] | 0.1 to 1 | 0.1 to 1 | 
N[C@@H]1CCCC12CCN(c1ncc(Sc3cccc(NC(=O)c4c(O)nc5n(c4=O)CCCC5)c3Cl)c3nccn13)CC2 [(R)-N-(3-((5-(1-amino-8-azaspiro[4.5]decan-8-yl)imidazo[1,2-c]pyrimidin-8-yl)thio)-2-chlorophenyl)-2-hydroxy-4-oxo-6,7,8,9-tetrahydro-4H-pyrido[1,2-a]pyrimidin-3-carboxamide] | 0.1 to 1 | 0.1 to 1 | 
N[C@@H]1COCC12CCN(c1ncc(Sc3cccc(Cl)c3Cl)c3nccn13)CC2 [(S)-8-(8-((2,3-dichlorophenyl)thio)imidazo[1,2-c]pyrimidin-5-yl)-2-oxa-8-azaspiro[4.5]decan-4-amine] | 0.1 to 1 | < 0.1 | 
N[C@@H]1COCC12CCN(c1ncc(Sc3ccnc(Cl)c3Cl)c3nncn13)CC2 [(S)-8-(8-((2,3-dichloropyridin-4-yl)thio)-[1,2,4]triazolo[4,3-c]pyrimidin-5-yl)-2-oxa-8-azaspiro[4.5]decan-4-amine] | 0.1 to 1 | 0.1 to 1 | 
Nc1cc(Sc2cnc(N3CCC4(CC3)COC[C@H]4N)n3cnnc23)c(Cl)c(Cl)n1 [(S)-8-(8-((6-amino-2,3-dichloropyridin-4-yl)thio)-[1,2,4]triazolo[4,3-c]pyrimidin-5-yl)-2-oxa-8-azaspiro[4.5]decan-4-amine] | 1 to 10 | < 0.1 | 
COC(=O)c1ccccc1Sc1cnc(N2CCC3(CCC[C@H]3N)CC2)n2ccnc12 [Methyl (R)-2-((5-(1-amino-8-azaspiro[4.5]decan-8-yl)imidazo[1,2-c]pyrimidin-8-yl)thio)benzoate] | 0.1 to 1 | 0.1 to 1 | 
CC1(N)CCN(c2cnc(-c3cccc(Cl)c3Cl)c(N)n2)CC1 [SHP099, 6-(4-amino-4-methylpiperidin-1-yl)-3-(2,3-dichlorophenyl)pyrazin-2-amine, reference compound] |  |  | IC50 ([1]; Homo sapiens, MOLM-13, read-out: p-ERK IC50): 2.07 µM
